Test results as given in article PMC11721672, “Design, Structure–Activity Relationships, and Computational Modeling Studies of a Series of α-Helix Biased, Ultra-Short Glucagon-like Peptide-1 Receptor Agonists” (Molecules, 2024).
Where two headings read alike, the source gives them in different places. Square brackets hold non-standard residues; d marks the D form. Peptide text beside a SMILES is read from it. Bip = N[C@@H](Cc1ccc(-c2ccccc2)cc1)C(=O)O; αMePhe(2-F) = C[C@](N)(Cc1ccccc1F)C(=O)O; Phe(2-F) = N[C@@H](Cc1ccccc1F)C(=O)O; Aib = CC(C)(N)C(=O)O

Molecular target: T1, hGLP1 receptor (Homo sapiens, UniProt P43220)
T1 construct: expressed in transfected cells; host or cells: HEK (human embryonic kidney) cells co-expressing hGLP1 receptor and CRE-Luciferase
Assay: GLP-1 receptor agonism assay (HTRF cAMP, HEK cells co-expressing hGLP1 receptor and CRE-Luciferase)
Type: cell-based
Conditions: for Emax: HEK293, Table 6 potency profile; for dpEC50 (contribution of Cα-methylation): dpEC50 = pEC50 (Aib) − pEC50 (Ala) − 0.97, Aib peptide versus the Ala peptide of the same line
Experimental: Human embryonic kidney cells (HEK) co-expressing the hGLP1 receptor and CRE-Luciferase construct were used to determine agonist potency in this assay. The cells were thawed briefly at 37 °C, transferred to a sterile tube, and re-suspended in complete media at 37 °C. Cells were centrifuged at 1000 rpm for 5 min and collected; the cells were then re-suspended in an assay buffer consisting of Dulbecco’s phosphate-buffered saline (DPBS, GIBCO) with 500 μM of the phosphodiesterase inhibitor 3-isobutyl-1-methylxanthine (IBMX). The assay medium had 0% serum albumin, as specified in Table 1, Table 2, Table 3 and Table 4. The optimal cell density was determined to be 1000 cells/well. Cells were added to wells in 384-well plates containing appropriate pre-prepared dilutions of compounds (test peptides or reference compound exendin-4), sealed, and incubated with CO2 for 30 min. Test peptide solutions were diluted from 10 mM stock solutions to be used in two separate runs (performed in triplicate) from a maximal concentration of 1.0 μM, with 11 concentrations tested for each peptide using serial 1:3 dilution from this maximal concentration. […] The agonist assay was a homogeneous time-resolved fluorescence (HTRF) assay (Cisbio). Following incubation of the cells for 30 min with test or reference peptides, 5 μL of the cAMP acceptor cAMP-d2, prepared previously as a working solution from frozen stock (1:20 dilution), was added to each well of the assay plate along with 5 μL of anti-cAMP antibody-cryptate working solution (diluted 1:20 from frozen stock). The wells were incubated for 1 h at room temperature, and fluorescence was then read at 665 and 615 nm with an Envision reader with a TRF laser. Data were saved and analyzed using Prism software (GraphPad). Concentration–response analysis was performed using 4-parameter logistic fits of the resulting data, and EC50 values were obtained for each test and reference compound.

[1] = Table 2, Ala-scanning, 0% HSA, >1000 nM = out of range, read-out: cAMP EC50
[2] = Table 4, Ala-scan peptides, 0% HSA, read-out: pEC50 (converted)
[3] = Table 1, Phe6 modifications, 0% HSA, average of two independent experiments in triplicate (RXL-3039 tested once), read-out: cAMP EC50

T1 sequence (P43220 24-463): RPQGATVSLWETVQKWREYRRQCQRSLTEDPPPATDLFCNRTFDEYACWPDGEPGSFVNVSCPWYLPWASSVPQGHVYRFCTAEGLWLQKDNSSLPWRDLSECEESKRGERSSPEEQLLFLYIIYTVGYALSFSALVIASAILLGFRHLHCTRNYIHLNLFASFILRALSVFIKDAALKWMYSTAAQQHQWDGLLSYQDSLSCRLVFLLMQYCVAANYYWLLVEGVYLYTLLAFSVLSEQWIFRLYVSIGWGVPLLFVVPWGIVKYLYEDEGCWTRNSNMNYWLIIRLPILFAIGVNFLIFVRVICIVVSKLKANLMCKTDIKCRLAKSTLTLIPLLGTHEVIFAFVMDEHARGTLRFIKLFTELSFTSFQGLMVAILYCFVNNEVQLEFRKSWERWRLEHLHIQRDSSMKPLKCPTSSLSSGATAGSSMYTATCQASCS

Compound | Emax [%] | EC50 [3] [nM] | other results
C[C@H](NC(=O)CNC(=O)[C@H](CCC(=O)O)NC(=O)C(C)(C)NC(=O)[C@@H](N)Cc1c[nH]cn1)C(=O)N[C@@H](Cc1ccccc1F)C(=O)N[C@H](C(=O)N[C@@H](CO)C(=O)N[C@@H](CC(=O)O)C(=O)N[C@@H](Cc1ccc(-c2ccccc2)cc1)C(=O)N[C@@H](Cc1ccc(-c2ccccc2)cc1)C(N)=O)[C@@H](C)O [RXL-3004, His-Aib-Glu-Gly-Ala-Phe(2-F)-Thr-Ser-Asp-Bip-Bip-NH2] (H-H[Aib]EGA[Phe(2-F)]TSD[Bip][Bip]-NH2) | 108 | – | EC50 [1]: 7.7 nM; EC50 [2]: 6.92 nM
C[C@@H](O)[C@H](NC(=O)CNC(=O)[C@H](CCC(=O)O)NC(=O)C(C)(C)NC(=O)[C@@H](N)Cc1c[nH]cn1)C(=O)N[C@@H](Cc1c(F)c(F)c(F)c(F)c1F)C(=O)N[C@H](C(=O)N[C@@H](CO)C(=O)N[C@@H](CC(=O)O)C(=O)N[C@@H](Cc1ccc(-c2ccccc2)cc1)C(=O)N[C@@H](Cc1ccc(-c2ccccc2)cc1)C(N)=O)[C@@H](C)O [RXL-3018, His-Aib-Glu-Gly-Thr-Phe(2,3,4,5,6-F)-Thr-Ser-Asp-Bip-Bip-NH2] | 102 | 0.3 | GLP-1R agonist potency relative to RXL-3000 (versus RXL-3000): threefold less potent
C[C@@H](O)[C@H](NC(=O)CNC(=O)[C@H](CCC(=O)O)NC(=O)C(C)(C)NC(=O)[C@@H](N)Cc1c[nH]cn1)C(=O)N[C@@H](Cc1c[nH]c2ccccc12)C(=O)N[C@H](C(=O)N[C@@H](CO)C(=O)N[C@@H](CC(=O)O)C(=O)N[C@@H](Cc1ccc(-c2ccccc2)cc1)C(=O)N[C@@H](Cc1ccc(-c2ccccc2)cc1)C(N)=O)[C@@H](C)O [RXL-3023, His-Aib-Glu-Gly-Thr-Trp-Thr-Ser-Asp-Bip-Bip-NH2] (H-H[Aib]EGTWTSD[Bip][Bip]-NH2) | 106 | 13.8 | –
C[C@H](NC(=O)[C@H](CO)NC(=O)[C@@H](NC(=O)[C@H](Cc1ccccc1F)NC(=O)[C@@H](NC(=O)CNC(=O)[C@H](CCC(=O)O)NC(=O)C(C)(C)NC(=O)[C@@H](N)Cc1c[nH]cn1)[C@@H](C)O)[C@@H](C)O)C(=O)N[C@@H](Cc1ccc(-c2ccccc2)cc1)C(=O)N[C@@H](Cc1ccc(-c2ccccc2)cc1)C(N)=O [RXL-3007, His-Aib-Glu-Gly-Thr-Phe(2-F)-Thr-Ser-Ala-Bip-Bip-NH2] (H-H[Aib]EGT[Phe(2-F)]TSA[Bip][Bip]-NH2) | 132 | – | EC50 [1]: 14 nM; EC50 [2]: 4.79 nM
C[C@@H](O)[C@H](NC(=O)CNC(=O)[C@H](CCC(=O)O)NC(=O)C(C)(C)NC(=O)[C@@H](N)Cc1c[nH]cn1)C(=O)N[C@@](C)(Cc1ccccc1F)C(=O)N[C@H](C(=O)N[C@@H](CO)C(=O)N[C@@H](CC(=O)O)C(=O)N[C@@H](Cc1ccc(-c2ccccc2)cc1)C(=O)NC(C)(C)C(N)=O)[C@@H](C)O [RXL-3052, His-Aib-Glu-Gly-Thr-α-Me-Phe(2-F)-Thr-Ser-Asp-Bip-Aib-NH2] (H-H[Aib]EGT[αMePhe(2-F)]TSD[Bip][Aib]-NH2) | 112 | – | rescue of potency by Aib versus Ala substitution (Aib analog versus Ala analog at the same position): more than 100 fold; dpEC50 (contribution of Cα-methylation) (0% HSA): 1.11
C[C@@H](O)[C@H](NC(=O)CNC(=O)[C@H](CCC(=O)O)NC(=O)C(C)(C)NC(=O)[C@@H](N)Cc1c[nH]cn1)C(=O)N[C@@H](Cc1cccc(C(F)(F)F)c1)C(=O)N[C@H](C(=O)N[C@@H](CO)C(=O)N[C@@H](CC(=O)O)C(=O)N[C@@H](Cc1ccc(-c2ccccc2)cc1)C(=O)N[C@@H](Cc1ccc(-c2ccccc2)cc1)C(N)=O)[C@@H](C)O [RXL-3016, His-Aib-Glu-Gly-Thr-Phe(3-CF3)-Thr-Ser-Asp-Bip-Bip-NH2] | 109 | 13.9 | –
C[C@@H](O)[C@H](NC(=O)CNC(=O)[C@H](CCC(=O)O)NC(=O)C(C)(C)NC(=O)[C@@H](N)Cc1c[nH]cn1)C(=O)N[C@@H](Cc1ccccc1Br)C(=O)N[C@H](C(=O)N[C@@H](CO)C(=O)N[C@@H](CC(=O)O)C(=O)N[C@@H](Cc1ccc(-c2ccccc2)cc1)C(=O)N[C@@H](Cc1ccc(-c2ccccc2)cc1)C(N)=O)[C@@H](C)O [RXL-3010, His-Aib-Glu-Gly-Thr-Phe(2-Br)-Thr-Ser-Asp-Bip-Bip-NH2] | 121 | 3.85 | –
C[C@H](NC(=O)[C@@H](NC(=O)[C@H](Cc1ccccc1F)NC(=O)[C@@H](NC(=O)CNC(=O)[C@H](CCC(=O)O)NC(=O)C(C)(C)NC(=O)[C@@H](N)Cc1c[nH]cn1)[C@@H](C)O)[C@@H](C)O)C(=O)N[C@@H](CC(=O)O)C(=O)N[C@@H](Cc1ccc(-c2ccccc2)cc1)C(=O)N[C@@H](Cc1ccc(-c2ccccc2)cc1)C(N)=O [RXL-3006, His-Aib-Glu-Gly-Thr-Phe(2-F)-Thr-Ala-Asp-Bip-Bip-NH2] (H-H[Aib]EGT[Phe(2-F)]TAD[Bip][Bip]-NH2) | 120 | – | EC50 [1]: 8.5 nM; EC50 [2]: 1.91 nM
C[C@@H](O)[C@H](NC(=O)CNC(=O)[C@H](CCC(=O)O)NC(=O)C(C)(C)NC(=O)[C@@H](N)Cc1c[nH]cn1)C(=O)N[C@@H](CCc1ccccc1)C(=O)N[C@H](C(=O)N[C@@H](CO)C(=O)N[C@@H](CC(=O)O)C(=O)N[C@@H](Cc1ccc(-c2ccccc2)cc1)C(=O)N[C@@H](Cc1ccc(-c2ccccc2)cc1)C(N)=O)[C@@H](C)O [RXL-3019, His-Aib-Glu-Gly-Thr-hPhe-Thr-Ser-Asp-Bip-Bip-NH2] | 110 | 16 | –
C[C@@H](O)[C@H](NC(=O)CNC(=O)C(C)(C)NC(=O)C(C)(C)NC(=O)[C@@H](N)Cc1c[nH]cn1)C(=O)N[C@@](C)(Cc1ccccc1F)C(=O)N[C@H](C(=O)N[C@@H](CO)C(=O)N[C@@H](CC(=O)O)C(=O)N[C@@H](Cc1ccc(-c2ccccc2)cc1)C(=O)N[C@@H](Cc1ccc(-c2ccccc2)cc1)C(N)=O)[C@@H](C)O [RXL-3031, His-Aib-Aib-Gly-Thr-α-Me-Phe(2-F)-Thr-Ser-Asp-Bip-Bip-NH2] (H-H[Aib][Aib]GT[αMePhe(2-F)]TSD[Bip][Bip]-NH2) | 121 | – | pEC50 (Table 4, Aib-scan peptides, 0% HSA): 8.31; dpEC50 (contribution of Cα-methylation) (0% HSA): −1.13
C[C@@H](O)[C@H](NC(=O)CNC(=O)[C@H](CCC(=O)O)NC(=O)C(C)(C)NC(=O)[C@@H](N)Cc1c[nH]cn1)C(=O)N[C@@H](Cc1ccccc1[N+](=O)[O-])C(=O)N[C@H](C(=O)N[C@@H](CO)C(=O)N[C@@H](CC(=O)O)C(=O)N[C@@H](Cc1ccc(-c2ccccc2)cc1)C(=O)N[C@@H](Cc1ccc(-c2ccccc2)cc1)C(N)=O)[C@@H](C)O [RXL-3014, His-Aib-Glu-Gly-Thr-Phe(2-NO2)-Thr-Ser-Asp-Bip-Bip-NH2] | 104 | 1.1 | –
C[C@@H](O)[C@H](NC(=O)CNC(=O)[C@H](CCC(=O)O)NC(=O)C(C)(C)NC(=O)[C@@H](N)Cc1c[nH]cn1)C(=O)N[C@@H](Cc1ccccc1F)C(=O)N[C@H](C(=O)N[C@@H](CO)C(=O)N[C@@H](CC(=O)O)C(=O)N[C@@H](Cc1ccc(-c2ccccc2)cc1)C(=O)N[C@@H](Cc1ccc(-c2ccccc2)cc1)C(N)=O)[C@@H](C)O [RXL-3000, His-Aib-Glu-Gly-Thr-Phe(2-F)-Thr-Ser-Asp-Bip-Bip-NH2] | 109 | 0.1 | EC50 [1]: 0.1 nM; EC50 (Table 3, Aib-scanning, 0% HSA, >1000 nM = out of range, read-out: cAMP EC50): 0.1 nM; GLP-1R agonist potency greater versus the parent peptide RXL-100 (versus RXL-100): approximately fivefold
C[C@@H](O)[C@H](NC(=O)CNC(=O)[C@H](CCC(=O)O)NC(=O)C(C)(C)NC(=O)[C@@H](N)Cc1c[nH]cn1)C(=O)N[C@@](C)(Cc1ccccc1F)C(=O)N[C@H](C(=O)NC(C)(C)C(=O)N[C@@H](CC(=O)O)C(=O)N[C@@H](Cc1ccc(-c2ccccc2)cc1)C(=O)N[C@@H](Cc1ccc(-c2ccccc2)cc1)C(N)=O)[C@@H](C)O [RXL-3035, His-Aib-Glu-Gly-Thr-α-Me-Phe(2-F)-Thr-Aib-Asp-Bip-Bip-NH2] (H-H[Aib]EGT[αMePhe(2-F)]T[Aib]D[Bip][Bip]-NH2) | 79.1 | – | decreased potency by Aib substitution (Aib-scanning, versus parent analog RXL-101): ≥ 100 fold; dpEC50 (contribution of Cα-methylation) (0% HSA): −2.80
Cc1ccccc1C[C@H](NC(=O)[C@@H](NC(=O)CNC(=O)[C@H](CCC(=O)O)NC(=O)C(C)(C)NC(=O)[C@@H](N)Cc1c[nH]cn1)[C@@H](C)O)C(=O)N[C@H](C(=O)N[C@@H](CO)C(=O)N[C@@H](CC(=O)O)C(=O)N[C@@H](Cc1ccc(-c2ccccc2)cc1)C(=O)N[C@@H](Cc1ccc(-c2ccccc2)cc1)C(N)=O)[C@@H](C)O [RXL-3013, His-Aib-Glu-Gly-Thr-Phe(2-CH3)-Thr-Ser-Asp-Bip-Bip-NH2] | 98.6 | 2.1 | –
